Data taken from publication PMC8037814, “Polymorphic Characterization, Pharmacokinetics, and Anti-Inflammatory Activity of Ginsenoside Compound K Polymorphs” (Molecules, 2021).
Where “and” joins values, the source holds several entries; their conditions need not be identical. Equal entries are not always repeated. Where two headings read alike, the source gives them in different places.

Assay: Pharmacokinetics after intravenous administration of CK in rats (10 mg/kg)
Assay type: in vivo, Sprague-Dawley rats
Details: i.v. 10 mg/kg; for half-life: read-out: t1/2z (converted)
Experimental: All samples were analyzed with a triple quadrupole LC-MS/MS (API 4000 LC-MS/MS, AB Sciex, Framingham, MA, USA) coupled with an Agilent 1200 HPLC system (Agilent Technologies, Palo Alto, CA, USA). The MS was equipped with an electrospray system (ESI). The N2 gas temperature and ion-spray voltage were set to 550 °C and 4.5 kV, respectively. CK was measured in multiple reaction monitoring (MRM) mode using a negative electrospray ionization source at m/z 667.4 → 621.2 for CK (CID 25.6 v) and m/z 271.2 → 228.8 for internal standard (IS, (E)-5-(4-fluorostyryl)-2-isopropylbenzene-1,3-diol, Welichem Biotech Inc., Wayburne Drive Burnaby, BC, Canada) (CID 28.3 v) with a dwell time of 0.1 s.
Rats were divided randomly into 5 groups of six animals each (sex in half) and given 7 days to acclimatize to the facility before the experiments began. The four forms of CK were suspended in 0.5% sodium carboxymethyl cellulose (CMC-Na) solution and orally administered to rats at a dose of 20 mg/kg. A CK solution in a mixed solvent of dimethyl sulfoxide (DMSO)/castor oil/physiologic saline (3:5:92, v/v) was intravenously administered to the remaining group via the tail vein at a dose of 10 mg/kg. Blood samples were collected by retro-orbital puncture at the following times: 0.167, 0.333, 0.667, 1, 2, 3, 4, 6, 9, 12, and 24 h for the oral administration, and at 0.0083, 0.05, 0.133, 0.25, 0.5, 1, 2, 4, 6, and 9 h for the intravenous administration. Plasma samples were obtained by centrifuging a heparinized blood tube at 4000 rpm for 5 min and then stored at −70 °C until analysis.
The procedure for drug extraction from plasma samples was as follows: 0.2 mL acetonitrile, 0.2 mL plasma sample, and 10 μL IS (1 µg/mL) were added into a 1.5 mL Eppendorf-type tube. This mixture was vortexed for 1 min and then treated with 0.8 mL of methyl tert-butyl ether (MTBE) to precipitate the plasma proteins. After a mechanical vortex for 1 min and subsequent centrifugation (4000 rpm, 5 min), 0.8 mL of the supernatant was transferred and blow-dried with N2 at 40 °C in a water bath. Finally, the residue was dissolved in 120 μL of mobile phase, and then 10 μL was subjected to HPLC for analysis. […] Intra- and inter-day precision and accuracy never exceeded 15% by analyzing six replicate samples.
The CK pharmacokinetic parameters in rats, including the area under the curve (AUC(0–t) and AUC(0–∞)), mean residence time (MRT(0–t) and MRT(0–∞)), maximum concentration (Cmax), time to maximum concentration (Tmax), half-life (t1/2), apparent distribution volume (V), and total plasma clearance (CL), were derived from plasma concentration-time curves by using non-compartmental analysis (NCA) with DAS 2.0 software (Drug And Statistics, Mathematical Pharmacology Professional Committee of China, Shanghai, China). The absolute bioavailability (Fabs) was calculated from the dose-adjusted ratio of AUCp.o. to AUCi.v.. One-way analysis of variance (ANOVA) by SPSS 11.5 (SPSS Inc., Chicago, IL, USA) was conducted to compare the primary PK parameters.

[1] = female rats, individual rats 1-3, 10 mg/kg
[2] = female, Sprague-Dawley, rat, plasma, iv, 10 mg/kg, female rats, Mean±SD

With CC(C)=CCCC(C)(OC1OC(CO)C(O)C(O)C1O)C1CCC2(C)C1C(O)CC1C3(C)CCC(O)C(C)(C)C3CCC12C [CK, 20-O-β-D-glucopyranosyl-20(S)-protopanaxadiol] the “Plasma concentrations of CK” value (female rats, 0.5 min, individual rats 1-3, 10 mg/kg) was 54838.90 ng/mL and 127905.96 ng/mL and 48362.17 ng/mL, the “Plasma concentrations of CK” value (female rats, 0.05 h, individual rats 1-3, 10 mg/kg) was 15185.26 ng/mL and 25786.82 ng/mL and 6748.70 ng/mL and the “Plasma concentrations of CK” value (female rats, 8 min, individual rats 1-3, 10 mg/kg) was 1631.02 ng/mL and 4937.02 ng/mL and 980.77 ng/mL. For the same compound, the “Plasma concentrations of CK” value (female rats, 0.25 h, individual rats 1-3, 10 mg/kg) was 672.83 ng/mL and 1554.81 ng/mL and 553.32 ng/mL, the “Plasma concentrations of CK” value (female rats, 0.5 h, individual rats 1-3, 10 mg/kg) was 411.75 ng/mL and 359.74 ng/mL and the “Plasma concentrations of CK” value (female rats, 1 h, individual rats 1-3, 10 mg/kg) was 117.01 ng/mL and 136.73 ng/mL and 243.80 ng/mL. The “Plasma concentrations of CK” value (female rats, 2 h, individual rats 1-3, 10 mg/kg) was 136.06 ng/mL and 82.52 ng/mL, the “Plasma concentrations of CK” value (female rats, 4 h, individual rats 1-3, 10 mg/kg) was 63.54 ng/mL and 48.16 ng/mL and 99.22 ng/mL and the “Plasma concentrations of CK” value (female rats, 6 h, individual rats 1-3, 10 mg/kg) was 27.72 ng/mL and 22.95 ng/mL and 47.61 ng/mL. The “Plasma concentrations of CK” value (female rats, 9 h, individual rats 1-3, 10 mg/kg) was 27.31 ng/mL and 14.83 ng/mL and 34.93 ng/mL, the CLz/F (female rats, Mean±SD) was 92.7 ± 34.3 mL/min/kg and the Vz/F (female rats, Mean±SD) was 17.75 ± 7.49 L/kg. The “AUC(0-t)” value [1] was 3164.67 ng·h/mL and 6150.84 ng·h/mL and 2722.08 ng·h/mL, the “AUC(0-∞)” value [1] was 3206.10 ng·h/mL and 6173.20 ng·h/mL and 2779.29 ng·h/mL and the CLz/F [1] was 104 mL/min/kg and 54 mL/min/kg and 120 mL/min/kg. For the same compound, the “MRT(0-t)” value [1] was 34.2 min and 15.6 min and 60 min, the “MRT(0-∞)” value [1] was 56.4 min and 20.4 min and 86.4 min and the Vz/F [1] was 21.99 L/kg and 9.10 L/kg and 22.17 L/kg. For the same compound, the t1/2z [1] was 117 min and 128 min, the concentration at 0.5 min (female, Sprague-Dawley, rat, plasma, iv, 10 mg/kg, female rats, 0.5 min, Mean±SD, read-out: Plasma concentrations of CK) was 77000 ± 44200 ng/mL and the concentration at 0.05 h (female, Sprague-Dawley, rat, plasma, iv, 10 mg/kg, female rats, 0.05 h, Mean±SD, read-out: Plasma concentrations of CK) was 15900 ± 9540 ng/mL. For the same compound, the concentration at 8 min (female, Sprague-Dawley, rat, plasma, iv, 10 mg/kg, female rats, 8 min, Mean±SD, read-out: Plasma concentrations of CK) was 2520 ± 2120 ng/mL, the concentration at 0.25 h (female, Sprague-Dawley, rat, plasma, iv, 10 mg/kg, female rats, 0.25 h, Mean±SD, read-out: Plasma concentrations of CK) was 927 ± 547 ng/mL and the concentration at 0.5 h (female, Sprague-Dawley, rat, plasma, iv, 10 mg/kg, female rats, 0.5 h, Mean±SD, read-out: Plasma concentrations of CK) was 354 ± 60.4 ng/mL. For the same compound, the concentration at 0.5 h (female, Sprague-Dawley, rat, plasma, iv, 10 mg/kg, female rats, 0.5 h, individual rats 1-3, read-out: Plasma concentrations of CK) was 291 ng/mL, the concentration at 1 h (female, Sprague-Dawley, rat, plasma, iv, 10 mg/kg, female rats, 1 h, Mean±SD, read-out: Plasma concentrations of CK) was 166 ± 68.2 ng/mL and the concentration at 2 h (female, Sprague-Dawley, rat, plasma, iv, 10 mg/kg, female rats, 2 h, Mean±SD, read-out: Plasma concentrations of CK) was 102 ± 29.8 ng/mL. It also gave a concentration at 2 h (female, Sprague-Dawley, rat, plasma, iv, 10 mg/kg, female rats, 2 h, individual rats 1-3, read-out: Plasma concentrations of CK) of 86.6 ng/mL, a concentration at 4 h (female, Sprague-Dawley, rat, plasma, iv, 10 mg/kg, female rats, 4 h, Mean±SD, read-out: Plasma concentrations of CK) of 70.3 ± 26.2 ng/mL and a concentration at 6 h (female, Sprague-Dawley, rat, plasma, iv, 10 mg/kg, female rats, 6 h, Mean±SD, read-out: Plasma concentrations of CK) of 32.8 ± 13.1 ng/mL. For the same compound, the concentration at 9 h (female, Sprague-Dawley, rat, plasma, iv, 10 mg/kg, female rats, 9 h, Mean±SD, read-out: Plasma concentrations of CK) was 25.7 ± 10.1 ng/mL, the AUC(0-inf) [2] was 4050 ± 1850 ng·h/mL and the AUC(0-t) (female, Sprague-Dawley, rat, plasma, iv, 10 mg/kg, female rats, Mean±SD, read-out: AUC(0-t)) was 4010 ± 1870 ng·h/mL. The MRT last (female, Sprague-Dawley, rat, plasma, iv, 10 mg/kg, female rats, Mean±SD, read-out: MRT(0-t)) was 36.6 ± 22.2 min, the MRT inf (female, Sprague-Dawley, rat, plasma, iv, 10 mg/kg, female rats, Mean±SD, read-out: MRT(0-∞)) was 54.6 ± 33 min and the half-life [2] was 131 ± 15 min. The half-life (female, Sprague-Dawley, rat, plasma, iv, 10 mg/kg, female rats, individual rats 1-3) was 146 min, the “Plasma concentrations of CK” value (male rats, 0.5 min, individual rats 1-3, 10 mg/kg) was 67670.83 ng/mL and 69233.93 ng/mL and the “Plasma concentrations of CK” value (male rats, 0.05 h, individual rats 1-3, 10 mg/kg) was 11403.43 ng/mL and 18155.87 ng/mL. For the same compound, the “Plasma concentrations of CK” value (male rats, 8 min, individual rats 1-3, 10 mg/kg) was 1214.82 ng/mL and 3002.82 ng/mL and 2609.85 ng/mL, the “Plasma concentrations of CK” value (male rats, 0.25 h, individual rats 1-3, 10 mg/kg) was 664.52 ng/mL and 1307.24 ng/mL and the “Plasma concentrations of CK” value (male rats, 0.5 h, individual rats 1-3, 10 mg/kg) was 214.44 ng/mL and 391.89 ng/mL.
